{
  "source": "patent EP4741383A1",
  "about": "“COMPOUND AND USE THEREOF AS ANTI-CANCER DRUG” (Tyligand Bioscience (Shanghai) Limited, priority 2023, dated 2025)",
  "type_in_all_cases": "cell-based",
  "key": {"A2780": {"system": "A2780", "test": "CellTiter-Glo cell proliferation inhibition, A2780", "settings": "A2780 (human ovarian cancer cell line), 72 hours; read-out: Example IC50 (µM) A2780", "description": "(§1) This experiment used the CellTiter-Glo® Luminescent Cell Viability Assay kit from Promega to evaluate the inhibitory activity of the disclosed compounds on the proliferation of the following cell lines: 4T1 (mouse breast cancer cell line), A20 (mouse B-cell lymphoma cell line), A2780 (human ovarian cancer cell line), AsPC-1 (pancreatic cancer cell line), B16F10 (mouse melanoma cell line), BT549 (human breast cancer cell line), CT26 (mouse colon cancer cell line), EMT6 (mouse breast cancer cell line), HCT116 (colorectal cancer cell line), Jurket (acute leukemia cell line), KP-4 (pancreatic cancer cell line), LL/2 (mouse lung cancer cell line), MCF7 (breast cancer cell line), […] NCI-H358 (lung cancer cell line), NCI-H727 (gastric cancer cell line), NCI-1944 (lung cancer cell line), Pan 04.03 (pancreatic cancer cell line), SK-BR-3 (breast cancer cell line), THP-1 (leukemia cell line), TOV21G (ovarian cancer cell line), U87MG (glioblastoma cell line), and UM-UC-a (bladder cancer cell line). […]\n(§2) Cells were cultured according to the instructions provided by the cell supplier (Nanjing Kebai Biotechnology Co., Ltd.). […] Suspension or adherent cells were collected, and cell viability was determined using the trypan blue exclusion method, ensuring that cell viability was above 90%. […]"}, "B16F10": {"system": "B16F10", "test": "CellTiter-Glo cell proliferation inhibition, B16F10", "settings": "B16-F10; B16F10 (mouse melanoma cell line), 72 hours; read-out: Example IC50 (µM) B16F10", "description": "as §1, §2"}, "MKN45": {"system": "MKN45", "test": "CellTiter-Glo cell proliferation inhibition, MKN45", "settings": "MKN-45; MKN45 (mouse B-cell lymphoma cell line), 72 hours; read-out: Example IC50 (µM) MKN45", "description": "as §1, §2"}, "NCI-1944": {"system": "NCI-1944", "test": "CellTiter-Glo cell proliferation inhibition, NCI-1944", "settings": "NCI-1944 (lung cancer cell line), 72 hours; read-out: Example IC50 (µM) NCI-1944", "description": "as §1, §2"}, "Pan 04.03": {"system": "Pan 04.03", "test": "CellTiter-Glo cell proliferation inhibition, Pan 04.03", "settings": "Pan 04.03 (pancreatic cancer cell line), 72 hours; read-out: Example IC50 (µM) Pan 04.03", "description": "as §1, §2"}, "UM-UC-a": {"system": "UM-UC-a", "test": "CellTiter-Glo cell proliferation inhibition, UM-UC-a", "settings": "UM-UC-a (bladder cancer cell line), 72 hours; read-out: Example IC50 (µM) UM-UC-a", "description": "as §1, §2"}},
  "data": [
    {"smiles": "O=C(Nc1ccc(-c2csc(CO)c2)cc1)C(=O)Nc1ccc(-c2cc3cc(F)c(-c4nnn[nH]4)cc3n2C2CCC2)cc1", "note": "[Example 1]", "values": [
      {"measurement": "IC50", "setting": "A2780", "result": 0.128, "unit": "µM"},
      {"measurement": "IC50", "setting": "B16F10", "result": 0.142, "unit": "µM"},
      {"measurement": "IC50", "setting": "MKN45", "result": 0.326, "unit": "µM"},
      {"measurement": "IC50", "setting": "NCI-1944", "result": 0.112, "unit": "µM"},
      {"measurement": "IC50", "setting": "Pan 04.03", "result": 0.34, "unit": "µM"},
      {"measurement": "IC50", "setting": "UM-UC-a", "result": 0.193, "unit": "µM"}
    ]}
  ]
}
